Earlier results on 1 compound are cited in patent publication US20080153832A1, “PAN-ALPHA-2 RECEPTOR AGONIST AND RELAXANT COMPOSITIONS FOR TREATING GASTROINTESTINAL MOTILITY DISORDERS” (Allergan, Inc., priority 2006, published 2008).

Consider `CN(C)[C@@H](CCOc1cccc2ccccc12)c1ccccc1` [Dapoxetine], for which the “time to maximum serum concentration” value is on record as “about 1 hour”.
